Patent US20210070748A1, “INHIBITORS OF BRUTONS TYROSINE KINASE” (Pharmacyclics LLC, priority 2015, published 2021)

Tests used:
Assay type in all cases: biochemical
JAK3 = target: T1, JAK3 (Homo sapiens, UniProt P52333); test: Inhibition of a panel of kinases, in vitro HotSpot kinase assay: JAK3; details: D-compounds panel data; 1 μM ATP; read-out: IC50 JAK3
T1 sequence (P52333 1-1124): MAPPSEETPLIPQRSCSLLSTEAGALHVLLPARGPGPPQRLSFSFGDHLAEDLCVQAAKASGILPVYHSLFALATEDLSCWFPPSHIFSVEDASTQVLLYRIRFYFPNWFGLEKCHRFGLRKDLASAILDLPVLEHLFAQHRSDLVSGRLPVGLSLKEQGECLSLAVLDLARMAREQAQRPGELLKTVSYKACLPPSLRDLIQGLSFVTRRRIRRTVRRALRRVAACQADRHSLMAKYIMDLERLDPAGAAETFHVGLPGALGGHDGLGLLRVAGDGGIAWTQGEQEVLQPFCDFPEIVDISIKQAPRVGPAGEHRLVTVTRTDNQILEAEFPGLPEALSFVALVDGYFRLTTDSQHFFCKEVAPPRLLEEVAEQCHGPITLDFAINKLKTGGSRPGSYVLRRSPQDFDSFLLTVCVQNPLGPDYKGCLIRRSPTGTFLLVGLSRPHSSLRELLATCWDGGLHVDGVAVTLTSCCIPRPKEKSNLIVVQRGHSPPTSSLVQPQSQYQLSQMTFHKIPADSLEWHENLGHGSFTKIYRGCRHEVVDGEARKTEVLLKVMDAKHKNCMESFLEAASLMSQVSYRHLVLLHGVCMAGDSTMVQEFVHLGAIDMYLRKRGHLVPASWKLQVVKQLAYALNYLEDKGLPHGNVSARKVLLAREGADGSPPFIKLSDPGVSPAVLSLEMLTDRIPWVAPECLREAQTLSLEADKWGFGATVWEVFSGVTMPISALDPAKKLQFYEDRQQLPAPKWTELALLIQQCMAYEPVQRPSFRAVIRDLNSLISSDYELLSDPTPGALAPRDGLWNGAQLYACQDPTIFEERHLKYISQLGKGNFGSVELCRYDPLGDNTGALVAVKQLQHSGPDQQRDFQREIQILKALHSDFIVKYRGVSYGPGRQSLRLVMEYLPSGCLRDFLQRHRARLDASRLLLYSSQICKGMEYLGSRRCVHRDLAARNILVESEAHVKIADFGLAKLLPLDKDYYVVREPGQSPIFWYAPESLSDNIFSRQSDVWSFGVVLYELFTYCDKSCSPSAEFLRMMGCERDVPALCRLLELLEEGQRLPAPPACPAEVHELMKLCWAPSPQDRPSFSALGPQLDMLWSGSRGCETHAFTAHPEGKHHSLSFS

LCK = LCK (Homo sapiens, UniProt P06239); test: Inhibition of a panel of kinases, in vitro HotSpot kinase assay: LCK; details: D-compounds panel data; 1 μM ATP; read-out: IC50 LCK
LCK, sequence (P06239 whole entry): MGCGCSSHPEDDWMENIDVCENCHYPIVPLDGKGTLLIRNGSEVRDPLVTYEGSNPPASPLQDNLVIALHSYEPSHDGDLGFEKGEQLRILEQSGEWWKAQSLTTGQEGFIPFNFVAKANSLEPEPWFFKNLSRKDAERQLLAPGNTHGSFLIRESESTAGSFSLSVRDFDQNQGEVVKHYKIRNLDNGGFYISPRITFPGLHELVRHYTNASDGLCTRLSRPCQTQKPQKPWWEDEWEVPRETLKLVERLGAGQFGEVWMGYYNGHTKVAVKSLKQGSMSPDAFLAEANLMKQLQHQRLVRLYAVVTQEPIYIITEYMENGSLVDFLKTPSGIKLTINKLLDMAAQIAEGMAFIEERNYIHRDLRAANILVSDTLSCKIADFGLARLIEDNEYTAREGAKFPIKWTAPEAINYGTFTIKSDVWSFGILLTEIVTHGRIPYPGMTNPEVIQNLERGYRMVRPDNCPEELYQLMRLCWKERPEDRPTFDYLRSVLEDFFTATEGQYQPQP

ITK = target: T2, ITK (Homo sapiens, UniProt Q08881); test: Inhibition of a panel of kinases, in vitro HotSpot kinase assay: ITK; details: D-compounds panel data; 1 μM ATP
T2 sequence (Q08881 1-620): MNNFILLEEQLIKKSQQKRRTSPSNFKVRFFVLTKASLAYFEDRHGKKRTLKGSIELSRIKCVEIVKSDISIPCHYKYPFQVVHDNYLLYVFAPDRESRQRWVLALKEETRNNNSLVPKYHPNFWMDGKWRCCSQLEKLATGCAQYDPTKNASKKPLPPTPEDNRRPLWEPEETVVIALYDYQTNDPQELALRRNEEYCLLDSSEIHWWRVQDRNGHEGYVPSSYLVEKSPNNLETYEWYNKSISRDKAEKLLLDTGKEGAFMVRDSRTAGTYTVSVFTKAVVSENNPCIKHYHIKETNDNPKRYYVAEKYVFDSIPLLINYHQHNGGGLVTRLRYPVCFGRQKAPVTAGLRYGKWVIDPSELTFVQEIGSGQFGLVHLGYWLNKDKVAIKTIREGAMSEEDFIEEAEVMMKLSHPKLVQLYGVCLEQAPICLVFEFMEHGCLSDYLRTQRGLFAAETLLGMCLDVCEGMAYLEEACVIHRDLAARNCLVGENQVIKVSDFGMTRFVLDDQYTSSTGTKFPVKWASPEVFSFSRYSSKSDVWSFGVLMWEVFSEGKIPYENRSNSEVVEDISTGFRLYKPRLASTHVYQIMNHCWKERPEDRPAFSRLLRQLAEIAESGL
Method: (§1) The degree of inhibition of a panel of kinases is determined using the in vitro HotSpot kinase assay (purified enzymes, ^33P-ATP, an appropriate substrate and 1 μM ATP).

EGFR = EGFR (Homo sapiens, UniProt P00533); test: Inhibition of a panel of kinases, in vitro HotSpot kinase assay: EGFR; details: D-compounds panel data; 1 μM ATP
EGFR, sequence (P00533 25-1210): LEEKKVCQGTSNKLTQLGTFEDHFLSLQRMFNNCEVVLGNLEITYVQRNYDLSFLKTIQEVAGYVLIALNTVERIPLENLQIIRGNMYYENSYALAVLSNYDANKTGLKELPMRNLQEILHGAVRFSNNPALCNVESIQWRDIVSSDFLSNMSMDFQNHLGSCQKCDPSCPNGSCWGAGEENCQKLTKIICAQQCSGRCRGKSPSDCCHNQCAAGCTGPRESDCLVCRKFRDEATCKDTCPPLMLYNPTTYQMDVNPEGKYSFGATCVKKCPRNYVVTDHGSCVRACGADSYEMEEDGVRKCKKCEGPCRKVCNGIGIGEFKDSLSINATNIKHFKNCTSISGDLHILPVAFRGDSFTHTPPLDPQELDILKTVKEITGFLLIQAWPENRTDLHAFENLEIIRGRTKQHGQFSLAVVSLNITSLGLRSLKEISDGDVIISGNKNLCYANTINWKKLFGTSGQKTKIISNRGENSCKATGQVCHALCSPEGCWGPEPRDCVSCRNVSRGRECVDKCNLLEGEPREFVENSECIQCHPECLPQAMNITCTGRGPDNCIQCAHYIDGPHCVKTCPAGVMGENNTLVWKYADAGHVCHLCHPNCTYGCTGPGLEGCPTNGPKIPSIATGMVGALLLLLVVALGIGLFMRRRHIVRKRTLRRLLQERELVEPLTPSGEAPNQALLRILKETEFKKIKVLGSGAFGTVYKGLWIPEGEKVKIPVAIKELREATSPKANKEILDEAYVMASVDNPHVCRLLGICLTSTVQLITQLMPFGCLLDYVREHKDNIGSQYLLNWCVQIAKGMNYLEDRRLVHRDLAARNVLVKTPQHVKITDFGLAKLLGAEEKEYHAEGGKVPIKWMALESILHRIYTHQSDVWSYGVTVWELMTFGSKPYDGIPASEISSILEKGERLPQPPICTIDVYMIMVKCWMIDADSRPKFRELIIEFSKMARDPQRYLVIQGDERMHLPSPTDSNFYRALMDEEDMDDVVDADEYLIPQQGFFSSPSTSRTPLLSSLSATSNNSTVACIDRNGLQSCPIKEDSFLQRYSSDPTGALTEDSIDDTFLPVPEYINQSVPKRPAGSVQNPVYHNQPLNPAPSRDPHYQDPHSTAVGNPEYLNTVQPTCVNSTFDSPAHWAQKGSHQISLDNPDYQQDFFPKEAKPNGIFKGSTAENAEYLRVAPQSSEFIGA
Method: as §1

SRC = SRC (Homo sapiens, UniProt P12931); test: Inhibition of a panel of kinases, in vitro HotSpot kinase assay: SRC; details: D-compounds panel data; 1 μM ATP
SRC, sequence (P12931 whole entry): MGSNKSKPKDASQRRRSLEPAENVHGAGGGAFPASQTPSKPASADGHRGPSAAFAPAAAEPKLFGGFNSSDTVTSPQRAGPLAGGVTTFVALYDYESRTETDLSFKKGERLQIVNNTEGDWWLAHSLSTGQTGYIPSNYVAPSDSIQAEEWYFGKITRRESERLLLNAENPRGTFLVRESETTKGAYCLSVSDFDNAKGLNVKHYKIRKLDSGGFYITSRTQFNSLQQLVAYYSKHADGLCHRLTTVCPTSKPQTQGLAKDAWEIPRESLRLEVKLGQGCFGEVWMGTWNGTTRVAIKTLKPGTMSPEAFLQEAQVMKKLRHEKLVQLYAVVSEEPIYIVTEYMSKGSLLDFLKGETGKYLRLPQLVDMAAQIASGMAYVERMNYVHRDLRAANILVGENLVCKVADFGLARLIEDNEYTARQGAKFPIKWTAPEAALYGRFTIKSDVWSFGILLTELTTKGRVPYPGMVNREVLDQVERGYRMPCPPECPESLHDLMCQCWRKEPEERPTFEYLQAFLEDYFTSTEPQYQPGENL
Method: as §1

Row | SMILES | IC50 (JAK3) | IC50 (LCK) | IC50 (ITK) | IC50 (EGFR) | IC50 (SRC)
1 | Cn1cc(Nc2nc(N3CCCC4(C3)CN(c3ccc(C5CC5)cc3)C(=O)O4)cnc2C(N)=O)cn1 [Example D-147, 5-[3-(4-cyclopropylphenyl)-2-oxo-1-oxa-3,7-diazaspiro[4.5]decan-7-yl]-3-[(1-methyl-1H-pyrazol-4-yl)amino]pyrazine-2-carboxamide] | 1000 to 10000 nM | 100 to 1000 nM | > 10000 nM | 1000 to 10000 nM | 100 to 1000 nM
2 | Cc1cccc(-c2cnc(C3CCCN(c4cnc(C(N)=O)c(Nc5cnn(C)c5)n4)C3)[nH]2)c1 [Example D-148, 3-[(1-methyl-1H-pyrazol-4-yl)amino]-5-{3-[5-(3-methylphenyl)-1H-imidazol-2-yl]piperidin-1-yl}pyrazine-2-carboxamide] | 1000 to 10000 nM | 100 to 1000 nM | 1000 to 10000 nM | 1000 to 10000 nM | 100 to 1000 nM
3 | C[C@@H]1CC[C@H](NC(=O)c2ccc(C3CC3)cc2)CN1c1cnc(C(N)=O)c(Nc2ccc(N3CCN(C)CC3)c(F)c2)n1 [Example D-149, 5-[(2R,5 S)-5-(4-cyclopropylbenzamido)-2-methylpiperidin-1-yl]-3-{[3-fluoro-4-(4-methylpiperazin-1-yl)phenyl]amino}pyrazine-2-carboxamide] | 1000 to 10000 nM | 100 to 1000 nM | 100 to 1000 nM | > 10000 nM | 100 to 1000 nM
4 | C[C@H]1CC[C@@H](NC(=O)c2ccc(C3CC3)cc2)CN1c1cnc(C(N)=O)c(Nc2ccc(N3CCN(C)CC3)c(F)c2)n1 [Example D-150, 5-[(2S,5R)-5-(4-cyclopropylbenzamido)-2-methylpiperidin-1-yl]-3-{[3-fluoro-4-(4-methylpiperazin-1-yl)phenyl]amino}pyrazine-2-carboxamide] | 1000 to 10000 nM | 10 to 100 nM | 100 to 1000 nM | 100 to 1000 nM | 10 to 100 nM
5 | C[C@@H]1CC[C@H](NC(=O)N(C)C)CN1c1cnc(C(N)=O)c(Nc2cnn(C)c2)n1 [Example D-151, 5-[(2R,5S)-5-[(dimethylcarbamoyl)amino]-2-methylpiperidin-1-yl]-3-[(1-methyl-1H-pyrazol-4-yl)amino]pyrazine-2-carboxamide] | > 10000 nM | 10 to 100 nM | 1000 to 10000 nM | 1000 to 10000 nM | 100 to 1000 nM
6 | C[C@H]1CC[C@@H](NC(=O)N(C)C)CN1c1cnc(C(N)=O)c(Nc2cnn(C)c2)n1 [Example D-152, 5-[(2S,5R)-5-[(dimethylcarbamoyl)amino]-2-methylpiperidin-1-yl]-3-[(1-methyl-1H-pyrazol-4-yl)amino]pyrazine-2-carboxamide] | 1000 to 10000 nM | 1000 to 10000 nM | 1000 to 10000 nM | 1000 to 10000 nM | 100 to 1000 nM
7 | CN(C)c1ccc2c(c1)CCN([C@@H]1CCCN(c3cnc(C(N)=O)c(Nc4cnn(C)c4)n3)C1)C2=O [Example D-156, 5-[(3R)-3-[6-(dimethylamino)-1-oxo-1,2,3,4-tetrahydroisoquinolin-2-yl]piperidin-1-yl]-3-[(1-methyl-1H-pyrazol-4-yl)amino]pyrazine-2-carboxamide] | 1000 to 10000 nM | 1000 to 10000 nM | 100 to 1000 nM | > 10000 nM | 100 to 1000 nM
8 | Cc1cc(Nc2nc(N3CCC[C@@H](NC(=O)c4ccc(C(C)(C)O)cc4)C3)cnc2C(N)=O)sn1 [Example D-158, 5-[(3R)-3-[4-(2-hydroxypropan-2-yl)benzamido]piperidin-1-yl]-3-[(3-methyl-1,2-thiazol-5-yl)amino]pyrazine-2-carboxamide] | 1000 to 10000 nM | 100 to 1000 nM | 100 to 1000 nM | 1000 to 10000 nM | 100 to 1000 nM
9 | C[C@@H]1[C@H](NC(=O)c2ccc(C(C)(C)O)c(F)c2)CCCN1c1cnc(C(N)=O)c(Nc2cnn(C)c2)n1 [Example D-160, 5-[(2R,3R)-3-[3-fluoro-4-(2-hydroxypropan-2-yl)benzamido]-2-methylpiperidin-1-yl]-3-[(1-methyl-1H-pyrazol-4-yl)amino]pyrazine-2-carboxamide] | 100 to 1000 nM | 10 to 100 nM | 100 to 1000 nM | 100 to 1000 nM | 10 to 100 nM
10 | COC(C)(C)c1ccc(C(=O)N[C@@H]2CCCN(c3cnc(C(N)=O)c(Nc4cnn(C)c4)n3)[C@@H]2C)cc1 [Example D-161, 5-[(2R,3R)-3-[4-(2-methoxypropan-2-yl)benzamido]-2-methylpiperidin-1-yl]-3-[(1-methyl-1H-pyrazol-4-yl)amino]pyrazine-2-carboxamide] | 1000 to 10000 nM | 100 to 1000 nM | 100 to 1000 nM | 1000 to 10000 nM | 10 to 100 nM

The next lines start with the values.

Row | IC50 (JAK3) | IC50 (LCK) | IC50 (ITK) | IC50 (EGFR) | IC50 (SRC) | SMILES
11 | 100 to 1000 nM | 10 to 100 nM | 10 to 100 nM | 100 to 1000 nM | 10 to 100 nM | C[C@@H]1CC[C@H](NC(=O)c2ccc(C3CC3)cc2)CN1c1cnc(C(N)=O)c(Nc2ccc(N3CCN(C)CC3)cc2)n1 [Example D-153, 5-[(2R,5S)-5-(4-cyclopropylbenzamido)-2-methylpiperidin-1-yl]-3-{[4-(4-methylpiperazin-1-yl)phenyl]amino}pyrazine-2-carboxamide]
12 | 100 to 1000 nM | 100 to 1000 nM | 1000 to 10000 nM | > 10000 nM | 100 to 1000 nM | C[C@H]1CC[C@@H](NC(=O)c2ccc(C3CC3)cc2)CN1c1cnc(C(N)=O)c(Nc2ccc(N3CCN(C)CC3)cc2)n1 [Example D-154, 5-[(2S,5R)-5-(4-cyclopropylbenzamido)-2-methylpiperidin-1-yl]-3-{[4-(4-methylpiperazin-1-yl)phenyl]amino}pyrazine-2-carboxamide]
13 | 100 to 1000 nM | 100 to 1000 nM | 100 to 1000 nM | 1000 to 10000 nM | 100 to 1000 nM | CN(C)c1ccc2c(=O)n([C@@H]3CCCN(c4cnc(C(N)=O)c(Nc5cnn(C)c5)n4)C3)ccc2c1 [Example D-155, 5-[(3R)-3-[6-(dimethylamino)-1-oxo-1,2-dihydroisoquinolin-2-yl]piperidin-1-yl]-3-[(1-methyl-1H-pyrazol-4-yl)amino]pyrazine-2-carboxamide]
14 | 100 to 1000 nM | 10 to 100 nM | 10 to 100 nM | 1000 to 10000 nM | 10 to 100 nM | C[C@H]1CC[C@@H](NC(=O)c2ccc(C(C)(C)O)cc2)CN1c1nnc(C(N)=O)c(Nc2cnn(C)c2)n1 [Example D-157, 3-[(2S,5R)-5-[4-(2-hydroxypropan-2-yl)benzamido]-2-methylpiperidin-1-yl]-5-[(1-methyl-1H-pyrazol-4-yl)amino]-1,2,4-triazine-6-carboxamide]
15 | 100 to 1000 nM | 10 to 100 nM | 100 to 1000 nM | 100 to 1000 nM | 10 to 100 nM | Cc1cc(Nc2nc(N3CCC[C@@H](NC(=O)c4ccc(C(C)(C)O)cc4)[C@H]3C)cnc2C(N)=O)sn1 [Example D-159, 5-[(2R,3R)-3-[4-(2-hydroxypropan-2-yl)benzamido]-2-methylpiperidin-1-yl]-3-[(3-methyl-1,2-thiazol-5-yl)amino]pyrazine-2-carboxamide]
